Assays:
human DLK [1] = biological target: T1, human DLK (Homo sapiens (Human), UniProt Q12852); experiment: biochemical; format: binding; details: Table 2b DLK activity (global); read-out: Kd
Method: The DLK dissociation constants (Kd) have been determined in the KINOMEscan KdELECT Service at DiscoveRx.
A fusion protein of full length of human DLK (amino acids 1-859) and the DNA binding domain of NFkB was expressed in transiently transfected HEK293 cells. From these HEK 293 cells, extracts were prepared in M-PER extraction buffer (Pierce) in the presence of Protease Inhibitor Cocktail Complete (Roche) and Phosphatase Inhibitor Cocktail Set II (Merck) per manufacturers' instructions. The DLK fusion protein was labeled with a chimeric double-stranded DNA tag containing the NFkB binding site (5′-[sequence]-3′) fused to an amplicon for qPCR readout, which was added directly to the expression extract (the final concentration of DNA-tag in the binding reaction is 0.1 nM).
The liganded beads were blocked with excess biotin and washed with blocking buffer (SeaBlock (Pierce), 1% BSA, 0.05% Tween 20, 1 mM DTT) to remove unbound ligand and to reduce nonspecific binding.
Extracts were used directly in binding assays without any enzyme purification steps at a ≥10,000-fold overall stock dilution (final DNA-tagged enzyme concentration <0.1 nM). Extracts were loaded with DNA-tag and diluted into the binding reaction in a two step process. First extracts were diluted 1:100 in 1× binding buffer (PBS/0.05% Tween 20/10 mM DTT/0.1% BSA/2 μg/ml sonicated salmon sperm DNA) containing 10 nM DNA-tag. This dilution was allowed to equilibrate at room temperature for 15 minutes and then subsequently diluted 1:100 in 1× binding buffer. Test compounds were prepared as 111× stocks in 100% DMSO. Kds were determined using an 11-point 3-fold compound dilution series with three DMSO control points. […] The compounds were then diluted directly into the assays such that the final concentration of DMSO was 0.9%. All reactions performed in polypropylene 384-well plates. Each was a final volume of 0.02 mL. Assays were incubated with shaking for 1 hour at room temperature. Then the beads were pelleted and washed with wash buffer (1×PBS, 0.05% Tween 20) to remove displaced kinase and test compound. […] The kinase concentration in the eluates was measured by qPCR. qPCR reactions were assembled by adding 2.5 μL of kinase eluate to 7.5 μL of qPCR master mix containing 0.15 μM amplicon primers and 0.15 μM amplicon probe. The qPCR protocol consisted of a 10 minute hot start at 95° C., followed by 35 cycles of 95° C. for 15 seconds, 60° C. for 1 minute.
Test compounds were prepared as 11× stocks in 100% DMSO. Kds were determined using an 11-point 3-fold compound dilution series with three DMSO control points. […] The compounds were then diluted directly into the assays such that the final concentration of DMSO was 0.9%. The Kds were determined using a compound top concentration of 30,000 nM. Kd measurements were performed in duplicate.
Binding constants (Kds) were calculated with a standard dose-response curve using the Hill equation:
The Hill Slope was set to −1.

human DLK [2] = biological target: T1, human DLK; experiment: cell-based; details: Table 2b (global); additional assay runs on multiple batches, includes Table 2a data in the averaging; p-cJun (Ser63), HEK293; read-out: Cell IC50
Method: HEK293 cells stably transfected with a Dox-inducible human DLK were plated into a 384-well plate in 20 μl (40,000 cells/well) of DMEM medium (without phenol red) containing 10% fetal bovine serum, 1.5 μg/ml doxycycline and 1 μg/ml puromycin. The cells as negative control were grown in the absence of doxycycline. The plate was incubated at 37° C., 5% CO2 for 20 h, before DMSO (control) or compounds diluted in medium were added. The cells were incubated at 37° C. for an additional 5 h, followed by lysis and the addition detection antibodies from p-cJun (Ser63) cellular assay kit (Cisbio) per manufacturer protocol. The standard dose response curves were fitted by Genedata Screener software using the variable-slope model: Signal=Signalnegative control+(SignalDMSO control−Signalnegative control)/(1+(IC50/Dose)^Hill slope). Only signal and dose in the equation were treated as known values.

Nc1ncc(-c2cn(C34CC(N5CCOCC5)(C3)C4)c(CC(F)(F)F)n2)cc1OC(F)(F)F [Example 48, 5-(1-(3-morpholinobicyclo[1.1.1]pentan-1-yl)-2-(2,2,2-trifluoroethyl)-1H-imidazol-4-yl)-3-(trifluoromethoxy)pyridin-2-amine]
Kd (human DLK [1]): 13 nM | IC50 (human DLK [2]): 413 nM

CC(C)(C)Cc1nc(-c2cnc(N)c(C(F)(F)F)c2)cn1C12CC(N3CCOCC3)(C1)C2 [Example 40, 5-(1-(3-morpholinobicyclo[1.1.1]pentan-1-yl)-2-neopentyl-1H-imidazol-4-yl)-3-(trifluoromethyl)pyridin-2-amine]
Kd (human DLK [1]): 66 nM | IC50 (human DLK [2]): 2460 nM

Nc1ncc(-c2cn(C34CC(N5CCOCC5)(C3)C4)c(C(O)C(F)(F)F)n2)cc1C(F)(F)F (single isomer, unassigned) [Example 69a, 1-(4-(6-amino-5-(trifluoromethyl)pyridin-3-yl)-1-(3-morpholinobicyclo[1.1.1]pentan-1-yl)-1H-imidazol-2-yl)-2,2,2-trifluoroethan-1-ol]
Kd (human DLK [1]): 0.36 nM | IC50 (human DLK [2]): 36.7 nM

CCC(C)c1nc(-c2cnc(N)c(OC(F)(F)F)c2)cn1C12CC(N3CCOCC3)(C1)C2 (centres unmarked) [Example 49, 5-(2-(sec-butyl)-1-(3-morpholinobicyclo[1.1.1]pentan-1-yl)-1H-imidazol-4-yl)-3-(trifluoromethoxy)pyridin-2-amine]
Kd (human DLK [1]): 8.6 nM | IC50 (human DLK [2]): 290 nM

CC(C)c1nc(-c2cnc(N)c(OC(F)F)c2)cn1C12CC(N3CCOCC3)(C1)C2 [Example 38, 3-(difluoromethoxy)-5-(2-isopropyl-1-(3-morpholinobicyclo[1.1.1]pentan-1-yl)-1H-imidazol-4-yl)pyridin-2-amine]
Kd (human DLK [1]): 19 nM | IC50 (human DLK [2]): 709 nM

CC(C)C(O)c1nc(-c2cnc(N)c(OC(F)(F)F)c2)cn1C12CC(C1)C2 (centres unmarked) [Example 57, 1-(4-(6-amino-5-(trifluoromethoxy)pyridin-3-yl)-1-(bicyclo[1.1.1]pentan-1-yl)-1H-imidazol-2-yl)-2-methylpropan-1-ol]
Kd (human DLK [1]): 0.62 nM | IC50 (human DLK [2]): 38.6 nM

CC(C)c1nc(-c2cnc3ccn(C(C)c4ccccn4)c3c2)cn1C12CC(N3CCOCC3)(C1)C2 (centres unmarked) [Example 28, 4-(3-(2-isopropyl-4-(1-(1-(pyridin-2-yl)ethyl)-1H-pyrrolo[3,2-b]pyridin-6-yl)-1H-imidazol-1-yl)bicyclo[1.1.1]pentan-1-yl)morpholine]
Kd (human DLK [1]): 2.9 nM | IC50 (human DLK [2]): 148 nM

c1cc2ncc(-c3cn(C45CC(N6CCOCC6)(C4)C5)c(C4CC4)n3)cc2[nH]1 [Example 20, 4-(3-(2-cyclopropyl-4-(1H-pyrrolo[3,2-b]pyridin-6-yl)-1H-imidazol-1-yl)bicyclo[1.1.1]pentan-1-yl)morpholine]
Kd (human DLK [1]): 7500 nM | IC50 (human DLK [2]): 12000 nM

CCCN1CCN(C23CC(n4cc(-c5cnc(N)c(OC(F)(F)F)c5)nc4[C@@H](O)C(C)C)(C2)C3)CC1 [Example 10, (S)-1-(4-(6-amino-5-(trifluoromethoxy)pyridin-3-yl)-1-(3-(4-(propyl)piperazin-1-yl)bicyclo[1.1.1]pentan-1-yl)-1H-imidazol-2-yl)-2-methylpropan-1-ol]
Kd (human DLK [1]): 0.31 nM | IC50 (human DLK [2]): 13.9 nM

Nc1ncc(-c2cn(C34CC(N5CCOCC5)(C3)C4)c(CC3CC3)n2)cc1OC(F)F [Example 36, 5-(2-(cyclopropylmethyl)-1-(3-morpholinobicyclo[1.1.1]pentan-1-yl)-1H-imidazol-4-yl)-3-(difluoromethoxy)pyridin-2-amine]
Kd (human DLK [1]): 22 nM | IC50 (human DLK [2]): 500 nM

CS(=O)(=O)N1CCN(C23CC(n4cc(-c5cnc(N)c(OC(F)(F)F)c5)nc4C4CC4)(C2)C3)CC1 [Example 16, 5-(2-cyclopropyl-1-(3-(4-(methylsulfonyl)piperazin-1-yl)bicyclo[1.1.1]pentan-1-yl)-1H-imidazol-4-yl)-3-(trifluoromethoxy)pyridin-2-amine]
Kd (human DLK [1]): 24 nM | IC50 (human DLK [2]): 457 nM

Nc1ncc(-c2cn(C34CC(N5CCOCC5)(C3)C4)c([C@H](O)C(F)(F)F)n2)cc1OC(F)(F)F (single isomer, unassigned) [Example 8a]
Kd (human DLK [1]): 0.36 nM | IC50 (human DLK [2]): 24.8 nM

Nc1ncc(-c2cn(C34CC(N5CCS(=O)(=O)CC5)(C3)C4)c(C3CC3)n2)cc1OC(F)(F)F [Example 13, 4-(3-(4-(6-amino-5-(trifluoromethoxy)pyridin-3-yl)-2-cyclopropyl-1H-imidazol-1-yl)bicyclo[1.1.1]pentan-1-yl)thiomorpholine 1,1-dioxide]
Kd (human DLK [1]): 32 nM | IC50 (human DLK [2]): 317 nM

Nc1ncc(-c2cn(C34CC(N5CCOCC5)(C3)C4)c(C3CC3)n2)cc1OC(F)F [Example 37, 5-(2-cyclopropyl-1-(3-morpholinobicyclo[1.1.1]pentan-1-yl)-1H-imidazol-4-yl)-3-(difluoromethoxy)pyridin-2-amine]
Kd (human DLK [1]): 19 nM | IC50 (human DLK [2]): 351 nM

Nc1ncc(-c2cn(C34CC(N5CCC(O)CC5)(C3)C4)c(C3CC3)n2)cc1OC(F)(F)F [Example 26, 1-(3-(4-(6-amino-5-(trifluoromethoxy)pyridin-3-yl)-2-cyclopropyl-1H-imidazol-1-yl)bicyclo[1.1.1]pentan-1-yl)piperidin-4-ol]
Kd (human DLK [1]): 7 nM | IC50 (human DLK [2]): 383 nM

Nc1ncc(-c2cn(C34CC(N5CCN(CC(F)(F)F)CC5)(C3)C4)c(C3CC3)n2)cc1OC(F)(F)F [Example 15, 5-(2-cyclopropyl-1-(3-(4-(2,2,2-trifluoroethyl)piperazin-1-yl)bicyclo[1.1.1]pentan-1-yl)-1H-imidazol-4-yl)-3-(trifluoromethoxy)pyridin-2-amine]
Kd (human DLK [1]): 18 nM | IC50 (human DLK [2]): 540 nM

Nc1ncc(-c2cn(C34CC(N5CCCCC5)(C3)C4)c(C3CC3)n2)cc1OC(F)(F)F [Example 19, 5-(2-cyclopropyl-1-(3-(piperidin-1-yl)bicyclo[1.1.1]pentan-1-yl)-1H-imidazol-4-yl)-3-(trifluoromethoxy)pyridin-2-amine]
Kd (human DLK [1]): 14 nM | IC50 (human DLK [2]): 600 nM

CCC(O)c1nc(-c2cnc(N)c(C(F)(F)F)c2)cn1C12CC(C1)C2 (centres unmarked) [Example 61, 1-(4-(6-amino-5-(trifluoromethyl)pyridin-3-yl)-1-(bicyclo[1.1.1]pentan-1-yl)-1H-imidazol-2-yl)propan-1-ol]
Kd (human DLK [1]): 2.1 nM | IC50 (human DLK [2]): 167 nM

C[C@H](O)c1nc(-c2cnc(N)c(C(F)(F)F)c2)cn1C12CC(C1)C2 [Example 33, (S)-1-(4-(6-amino-5-(trifluoromethyl)pyridin-3-yl)-1-(bicyclo[1.1.1]pentan-1-yl)-1H-imidazol-2-yl)ethan-1-ol]
Kd (human DLK [1]): 9.7 nM | IC50 (human DLK [2]): 207 nM

COCCN(CCOC)C12CC(n3cc(-c4cnc(N)c(OC(F)(F)F)c4)nc3C3CC3)(C1)C2 [Example 25, 5-(1-(3-(bis(2-methoxyethyl)amino)bicyclo[1.1.1]pentan-1-yl)-2-cyclopropyl-1H-imidazol-4-yl)-3-(trifluoromethoxy)pyridin-2-amine]
Kd (human DLK [1]): 6.4 nM | IC50 (human DLK [2]): 389 nM

CC(O)c1nc(-c2cnc(N)c(OC(F)(F)F)c2)cn1C12CC(C1)C2 (centres unmarked) [Example 55, 1-(4-(6-amino-5-(trifluoromethoxy)pyridin-3-yl)-1-(bicyclo[1.1.1]pentan-1-yl)-1H-imidazol-2-yl)ethan-1-ol]
Kd (human DLK [1]): 14 nM | IC50 (human DLK [2]): 443 nM

CC(C)C(O)c1nc(-c2cnc(N)c(C(F)(F)F)c2)cn1C12CC(C1)C2 (centres unmarked) [Example 59, 1-(4-(6-amino-5-(trifluoromethyl)pyridin-3-yl)-1-(bicyclo[1.1.1]pentan-1-yl)-1H-imidazol-2-yl)-2-methylpropan-1-ol]
Kd (human DLK [1]): 0.29 nM | IC50 (human DLK [2]): 20.9 nM
